Patent US6639107B1, “Cyclopentyl sulfonamide derivatives” (Eli Lilly and Company, priority 1999, dated 2003)

melting point: 128 to 130 °C
SMILES: CC(C)S(=O)(=O)N[C@H]1CCC[C@@H]1c1ccc(Br)cc1 (racemic) [Example 48, (+,−) Trans Propane-2-sulfonic Acid [2-(4-bromo-phenyl)-cyclopentyl]-amide]
